Measured values reported in PMC6934184, “Selective DNA-PKcs inhibition extends the therapeutic index of localized radiotherapy and chemotherapy” (The Journal of Clinical Investigation, 2019).

Target: T1, CDK11 (Inactive) (Homo sapiens, UniProt Q9BWU1)
T1 construct: purchased Thermo Fisher Scientific (Life Technologies) SelectScreen
Test: SelectScreen LanthaScreen
Format: binding
Conditions: 1 µM
Outline: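 NU5455 was profiled across the SelectScreen Broad panel of kinase activity and binding assays. Z'LYTE reactions such as CSF1R ran at apparent Km ATP, while the Adapta CAMK1 assay used ATP listed as 10. Values are given as percent.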

T1 sequence (Q9BWU1 whole entry): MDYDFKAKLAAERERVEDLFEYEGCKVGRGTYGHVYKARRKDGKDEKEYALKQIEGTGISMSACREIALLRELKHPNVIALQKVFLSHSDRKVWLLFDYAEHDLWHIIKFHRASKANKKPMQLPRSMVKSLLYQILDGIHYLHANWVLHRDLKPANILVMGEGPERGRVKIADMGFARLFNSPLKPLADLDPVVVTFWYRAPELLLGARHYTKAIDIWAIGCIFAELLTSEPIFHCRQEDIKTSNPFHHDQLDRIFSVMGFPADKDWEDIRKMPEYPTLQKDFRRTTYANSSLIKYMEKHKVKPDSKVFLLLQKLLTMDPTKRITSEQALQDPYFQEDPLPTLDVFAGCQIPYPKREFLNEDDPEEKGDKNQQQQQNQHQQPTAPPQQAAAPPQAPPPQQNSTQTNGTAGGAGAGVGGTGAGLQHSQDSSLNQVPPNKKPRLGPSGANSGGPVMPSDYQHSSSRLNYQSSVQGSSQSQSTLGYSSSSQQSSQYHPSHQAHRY

CN(C(=O)CN1CCOCC1)c1ccc2sc3c(-c4cccc5c(=O)cc(N6CC7CCC(C6)O7)oc45)cccc3c2c1 [NU5455]
% displacement: 1.7%
